Results: patent US11773373B2, “Method for amplifying CD8+T cells and cell subpopulations thereof in-vitro” (Shanghai Innovative Chang'An Biological Technology Co., Ltd., priority 2017, dated 2023)

B1: Flagellin: TLR5 agonist, S. typhimurium Flagellin (invivoGen: tlrl-epstfla-5) (protein, UniProt P06179 2-495, looked up)
Flagellin: AQVINTNSLSLLTQNNLNKSQSALGTAIERLSSGLRINSAKDDAAGQAIANRFTANIKGLTQASRNANDGISIAQTTEGALNEINNNLQRVRELAVQSANSTNSQSDLDSIQAEITQRLNEIDRVSGQTQFNGVKVLAQDNTLTIQVGANDGETIDIDLKQINSQTLGLDTLNVQQKYKVSDTAATVTGYADTTIALDNSTFKASATGLGGTDQKIDGDLKFDDTTGKYYAKVTVTGGTGKDGYYEVSVDKTNGEVTLAGGATSPLTGGLPATATEDVKNVQVANADLTEAKAALTAAGVTGTASVVKMSYTDNNGKTIDGGLAVKVGDDYYSATQNKDGSISINTTKYTADDGTSKTALNKLGGADGKTEVVSIGGKTYAASKAEGHNFKAQPDLAEAAATTTENPLQKIDAALAQVDTLRSDLGAVQNRFNSAITNLGNTVNNLTSARSRIEDSDYATEVSNMSRAQILQQAGTSVLAQANQVPQNVLSLLR

Key:
CD8+ T cells = test: Proliferation of sorted CD8+ T cells of healthy subjects (eFluor 670 dye, flow cytometry, 7 days); format: cell-based; conditions: in combination with anti-human CD3 antibody, compared with magnetic beads coated with anti-human CD3 antibody alone
Text: 1. Peripheral blood mononuclear cells (PBMC) of healthy subjects were isolated according to Example 1.
(§1) 2. CD8+ T cells were sorted using an EasySep™ Negative Selection Human CD8+ T cell Enrichment kit (Stemcell: 19053).
(§2) 3. The sorted CD8 cells were stained using Cell Proliferation Dye eFluor 670 (ebioscience: 65-0840-90).
(§3) 4. The cells were placed in a 96-well U-shaped bottom plate with 1×10^5 cells per well.
(§4) 5. The following stimulants and TLR agonists (invivoGen: tlr-kit1hw, human TLR1-9 Agonist KIT) were added in groups:
(The anti-human CD3 antibody and the anti-human CD28 antibody used were magnetic beads coated with the antibodies (CELLection Pan Mouse IgG Kit, Invitrogen: 11531D), wherein the ratio of the cells to the magnetic beads was 1:1)
(§5) 6. The cells were cultured in the 96-well U-shaped bottom plate, and cultured in a cell incubator for 7 days.
7. The proliferation of the CD8+ T cells was detected by a flow cytometer under the stimulation conditions of different TLR agonists. FIG. 1A is a diagram showing the proliferation of CD8 cells under the conditions of blank control (left panel) as well as an anti-human CD3 antibody and an anti-human CD28 antibody (right panel). FIG. 1B is a statistical chart showing the proliferation proportion of CD8 cells under different stimulation conditions.

[1] = tested on: central memory CD8+ T cells (TCM); test: Proliferation of the central memory subpopulation of CD8+ T cells of healthy subjects; format: cell-based; conditions: in combination with anti-human CD3 antibody, compared with anti-human CD3 beads alone, 7 days
Experimental: (§6) 1. Peripheral blood mononuclear cells (PBMC) of healthy subjects were isolated.
(§7) 2. CD8+ T cells were sorted using an EasySep™ Negative Selection Human CD8+ T cell Enrichment kit (stem cell: 19053).
as §2, §3, §4
(§8) (The anti-human CD3 antibody used was magnetic beads coated with the antibody (CELLection Pan Mouse IgG Kit, Invitrogen: 11531D), wherein the ratio of the cells to the magnetic beads was 1:1)
as §5
(§9) 7. The cells were labeled with antibodies CD8 (BD: 561423), CD45RA (eBioscience: 25-0458-42) and CCR7 (eBioscience: 17-1979-42), and the influence of different TLR agonists on the proliferation of CD8+ T subpopulations (TNaive: Naive T cells, TCM: central memory T cells, TEM: effector memory T cells) was detected by flow cytometry.

[2] = tested on: effector memory T cells (TEM); test: Proliferation of the effector memory subpopulation of CD8+ T cells of healthy subjects; format: cell-based; conditions: in combination with anti-human CD3 antibody, compared with anti-human CD3 beads alone, 7 days
Experimental: as §6, §7, §2, §3, §4, §8, §5, §9

[3] = tested on: central memory CD8+ T cells (TCM); test: Proliferation of the central memory subpopulation of CD8+ T cells of HIV-1 infected individuals; format: cell-based, human; conditions: 7 days
Text: (§10) 1. Peripheral blood mononuclear cells (PBMC) of HIV-1 infected individuals were isolated.
as §1, §2, §3, §4
(§11) (The anti-human CD3 antibody and the anti-human CD28 antibody in the form of coated magnetic beads (CELLection Pan Mouse IgG Kit, Invitrogen: 11531D) were used to stimulate the cells, wherein the ratio of the cells to the magnetic beads was 1:1)
as §5
(§12) 7. The cells were labeled with antibodies CD8 (BD: 561423), CD45RA (eBioscience: 25-0458-42) and CCR7 (eBioscience: 17-1979-42), and the influence of different TLR agonists on the proliferation of CD8+ T subpopulations (TNaive: Naive T cells, TCM: central memory T cells, TEM: effector memory T cells) was detected by a flow cytometer.

[4] = tested on: effector memory T cells (TEM); test: Proliferation of the effector memory subpopulation of CD8+ T cells of HIV-1 infected individuals; format: cell-based, human; conditions: 7 days
Text: as §10, §1, §2, §3, §4, §11, §5, §12

[5] = added to anti-human CD3/28 beads, compared with anti-human CD3/28 beads
[6] = added to anti-human CD3 beads, compared with anti-human CD3 beads alone

Molecule | proliferation of CD8+ T cells (CD8+ T cells) | proliferation of central memory CD8+ T cells (TCM) [1] | proliferation of effector memory T cells (TEM) [2] | proliferation of central memory CD8+ T cells (TCM) [3, 5] | proliferation of central memory CD8+ T cells (TCM) [3, 6] | proliferation of effector memory T cells (TEM) [4, 5] | proliferation of effector memory T cells (TEM) [4, 6]
FSL-1 | effectively stimulated | effectively stimulated | effectively stimulated | further enhanced | more effectively stimulated | further enhanced | more effectively stimulated
B1 | effectively stimulated | effectively stimulated | effectively stimulated | further enhanced | more effectively stimulated | further enhanced | more effectively stimulated
